From patent US10045998B2 (BASF SE, priority 2013, dated 2018)
Like-named read-outs stand apart in the source and are kept apart here.

Key:
[1] = Dynamic (water) vapour sorption (DVS), hygroscopicity; type: physicochemical; conditions: 25° C.
Protocol: DVS: Dynamic (water) vapour sorption (DVS) is performed with a SPS11-100n (“Sorptions Prüfsystem” moisture sorption instrument from Projekt Meβtechnik, Ulm, Germany, using about 20 mg of sample material in an aluminum pan with a change rate of 5% of total relative humidity per hour. Program starting value of 50% with equilibration for 2 hours, continuously lowering to 0%, equilibration (i.e. humidity kept constant), scanning from 0% to 95%, equilibration, scanning from 95% to 0%, equilibration, scanning from 0% to 95%, equilibration, and scanning to 50% relative humidity. Sample temp. 25° C.

[2] = Aqueous solubility in purified water, 24 h equilibration, HPLC; type: physicochemical; conditions: 25° C.; for Aqueous solubility S: 24 h equilibration, effective solubility of abiraterone acetate (corrected for formula mass), LOD ca. one microgram per ml
Protocol: (§1) The resulting suspension is equilibrated in a temperature-controlled Eppendorf Thermomixer Comfort shaker for 2 hours or 24 hours at 25° C. at a shaking rate of 700 rpm. After 2 hours, or 24 hours, the solid phases are recovered by filter centrifugation (0.22 μm PVDF membrane). Concentrations in the filtrate after 2 hours or 24 hours (i.e. saturated solution) are determined by HPLC using under conditions given in the below Table; limit of detection (LOD) is ca. one microgram per ml.
(§2) For the results in Table a), the medium is purified water.

[3] = Solubility of abiraterone acetate in phosphate buffer and various amounts of organic acids; type: physicochemical; conditions: for solubility: thermodynamic from solid, read-out: Solubility S
Protocol: as §1, §2

[4] = biopharmaceutics classification system; report EMA/CHMP/542871/2011; cited from earlier work
[5] = recent publications; quick absorption of a small fraction of the dose; cited from earlier work
[6] = pKa of the organic acid / coformer; cited from earlier work

CC(=O)O[C@H]1CC[C@@]2(C)C(=CC[C@@H]3[C@@H]2CC[C@]2(C)C(c4cccnc4)=CC[C@@H]32)C1.COc1cc(C(=O)O)ccc1O [Example 8]
water up-take at 80% r.h. [1]: about 0.2% | maximum water up-take at 95% r.h. [1]: less than 0.4%

CC(=O)O[C@H]1CC[C@@]2(C)C(=CC[C@@H]3[C@@H]2CC[C@]2(C)C(c4cccnc4)=CC[C@@H]32)C1 [Abiraterone acetate, (3β)-17-(3-pyridinyl)androsta-5,16-dien-3-yl acetate]
Aqueous solubility S [2]: <LOD | solubility ([3]; pH 3.1, aqueous buffer, phosphate buffer, no acid added, 25° C.): 2 µg/mL | solubility ([3]; phosphate buffer with ascorbic acid, pH 2.4, aqueous buffer, phosphate buffer, ascorbic acid 0.5 mol/L, 25° C.): 33 µg/mL | solubility ([3]; phosphate buffer with ascorbic acid, pH 2.8, aqueous buffer, phosphate buffer, ascorbic acid 0.1 mol/L, 25° C.): 5 µg/mL | solubility ([3]; phosphate buffer with citric acid, 25 °C, pH 2.3, aqueous buffer): 14 µg/mL | pH ([3]; phosphate buffer, ascorbic acid 0.1 mol/L): 2.8 | pH ([3]; phosphate buffer, ascorbic acid 0.5 mol/L): 2.4 | pH ([3]; phosphate buffer, citric acid 0.5 mol/L): 2.3 | pH ([3]; phosphate buffer, no acid added): 3.1 | BCS class [4]: class IV | median peak concentration, time after dosing [5]: 2 h

O=C(O)[C@H](O)[C@@H](O)C(=O)O [L-Tartaric acid, L-tartaric acid]
pKa [6]: L-Tartaric acid (2.95)

O=C(O)/C=C\C(=O)O [Example 4, Maleic acid]
Aqueous solubility S [2]: 14.4 microgram/ml | pH of the saturated solution ([2]; after 24 h equilibration): 2.3

CC(=O)OC1CCC2(C)C(=CCC3C2CCC2(C)C(c4cccnc4)=CCC32)C1.O=C1NS(=O)(=O)c2ccccc21 (centres unmarked) [Example 6]
water up-take at 80% r.h. [1]: 0.1 to 0.2% | maximum water up-take at 95% r.h. [1]: less than 0.4%

CC(=O)O[C@H]1CC[C@@]2(C)C(=CC[C@@H]3[C@@H]2CC[C@]2(C)C(c4cccnc4)=CC[C@@H]32)C1.O=C(O)CC(O)C(=O)O [Example 3]
Aqueous solubility S [2]: 13.8 microgram/ml | maximum water up-take at 95% r.h. [1]: less than 4%
